Test system: BRU virus (clade B)
Assay: Number of syncitia in MT4 cell culture infected by BRU virus
Type: cell-based, HIV
Set-up: key: the absence of syncitia is indicated by a minus (−) sign; the (+), +, ++, ++T signs indicate an increasing number of syncitia in each well; the (+), +, ++, ++T signs indicate an increasing number of syncitia in each well; the (+), +, ++, ++T signs indicate an increasing number of syncitia in each well; the (+), +, ++, ++T signs indicate an increasing number of syncitia in each well; The indication “T” indicates the death of the cells
Settings: 0.01 μM; for Number of Syncitia in the Culture (wells), J3: day 3; for Number of Syncitia in the Culture (wells), J4: day 4; for Number of Syncitia in the Culture (wells), J5: day 5; for Number of Syncitia in the Culture (wells), J6: day 6; for Number of Syncitia in the Culture (wells), J7: day 7
Method: either by the observation, as a function of the quantity of sulphated polysaccharide used and of the time of said use, which can be made before, during or after infection, or even continuously, and of the reduction of the number of syncitia appearing in a culture of MT4 cells following infection by a HIV retrovirus (example 2A),
Then infection of the cells was carried out by adding to each well, with the exception of those wells being used as control cells, 50 μL of previously titrated virus dilution.
After an additional hour of incubation, the plate was centrifuged and the supernatant containing the residual virus was discarded.
After 3 days of culture, the cells were diluted to half and the syncitia were observed using the inverse microscope from day 3 to day 7 after having been placed in suspension.
In the third case, the MT4 cell culture was preincubated for one hour at 37° C., then the cells were infected, the whole was subjected to incubation for one hour at 37° C., then to centrifugation with the elimination of the supernatant containing the virus that had not penetrated into the cells.
The washings and rinsings were done using RPMI without foetal calf serum.
In each of the four types of experiments that have just been described, and as previously indicated, the cells were diluted to half after three days of culture and then the syncitia were observed using the inverted microscope from day 3 to day 7.
In the experiments described in greater detail hereinafter, the absence of syncitia is indicated by a minus (−) sign and the (+), +, ++, ++T signs indicate an increasing number of syncitia in each well.
The indication “T” indicates the death of the cells.
The BRU virus (clade B) was used for infecting the MT4 cells at a viral dilution of 10^5, which corresponds to the quantity of viral particles capable of infecting 80% of the MT4 cultures (Tissue Culture Infections Dose 80%, TCID80%).

[1] = Continuous, before, during and after infection

Q: With 3′-azidothymidine [AZT] as the substance, how does the “Number of Syncitia in the Culture (wells), J3” value (“Number of Syncitia … J3” below) (After infection) read?
A: −

Q: What about the “Number of Syncitia in the Culture (wells), J4” value (“Number of Syncitia … J4” below) (After infection) of the same substance?
A: −

Q: What about the “Number of Syncitia in the Culture (wells), J5” value (“Number of Syncitia … J5” below) (After infection) of the same substance?
A: −

Q: And the “Number of Syncitia in the Culture (wells), J6” value (“Number of Syncitia … J6” below) (After infection)?
A: −

Q: What about the “Number of Syncitia in the Culture (wells), J7” value (“Number of Syncitia … J7” below) (After infection) of the same substance?
A: −

Q: What about the “Number of Syncitia … J3” value (Before infection) of the same substance?
A: −

Q: What about the “Number of Syncitia … J4” value (Before infection) of the same substance?
A: (+)

Q: And the “Number of Syncitia … J5” value (Before infection)?
A: ++ and +

Q: What about the “Number of Syncitia … J6” value (Before infection) of the same substance?
A: ++T and ++

Q: And the “Number of Syncitia … J7” value (Before infection)?
A: ++T

Q: And the “Number of Syncitia … J3” value [1]?
A: −

Q: What about the “Number of Syncitia … J4” value [1] of the same substance?
A: −

Q: And the “Number of Syncitia … J5” value [1]?
A: −

Q: And the “Number of Syncitia … J6” value [1]?
A: −

Q: And the “Number of Syncitia … J7” value [1]?
A: −

Q: And the “Number of Syncitia … J3” value (During infection)?
A: −

Q: And the “Number of Syncitia … J4” value (During infection)?
A: (+)

Q: What about the “Number of Syncitia … J5” value (During infection) of the same substance?
A: +

Q: What about the “Number of Syncitia … J6” value (During infection) of the same substance?
A: ++

Q: And the “Number of Syncitia … J7” value (During infection)?
A: ++T
